Legend:
[1] = system: recombinant human anti-SARS-CoV antibody 03-018; assay type: binding; parameters: Binding of antibody 03-018 to linear peptides of the N protein of SARS-CoV Urbani / Binding of antibody 03-018 to looped/cyclic peptides of the N protein of SARS-CoV Urbani: unit not given here
[2] = system: control sera (pooled serum of ten healthy LUMC hospital workers; commercial negative donor pooled serum from the Dutch bloodbank); assay type: binding, human; parameters: Binding of Control serum LUMC to linear peptides / Binding of Control serum Blood-bank to linear peptides / Binding of Control serum LUMC to looped peptides / Binding of Control Serum Blood-Bank to Looped peptides / Binding of Control serum LUMC to linear peptides of the protein M of SARS-CoV Urbani / Binding of Control serum Blood-bank to linear peptides of the protein M of SARS-CoV Urbani / Binding of Control serum LUMC to looped peptides of the protein M of SARS-CoV Urbani / Binding of Control Serum Blood-Bank to Looped peptides of the protein M of SARS-CoV Urbani: unit not given here
[3] = system: rabbit serum obtained by immunizing a rabbit with the SARS-CoV strain Frankfurt 1; assay type: binding; parameters: Binding of a rabbit serum to linear peptides / Binding of a rabbit serum to looped peptides / Rabbit serum linear peptides / Rabbit serum looped peptides / Binding of a rabbit serum to linear peptides of protein N of SARS-CoV Urbani (Rabbit serum linear peptides) / Binding of a rabbit serum to looped/cyclic peptides of protein N of SARS-CoV Urbani (Rabbit serum looped peptides): unit not given here
[4] = system: antibodies in sera from SARS patients (sera 1a, 1b, 2, 6, 37, 62, London, SARS-yellow, SARS-green); assay type: binding, human; parameters: Binding of serum 6 to linear peptides of protein X1 of SARS-CoV Urbani / Binding of serum 37 to linear peptides of protein X1 of SARS-CoV Urbani / Binding of serum 6 to looped/cyclic peptide (PEPSCAN-ELISA) / Binding of serum 37 to looped/cyclic peptide (PEPSCAN-ELISA) / Binding of serum 37 to looped/cyclic peptides of protein X1 of SARS-CoV Urbani / Binding of serum 6 to linear peptides of protein X2 / Binding of serum 37 to linear peptides of protein X2 / Binding of serum 37 to looped/cyclic peptides of protein X2 of SARS-CoV Urbani / Binding of serum 6 to linear peptides of protein M of SARS-CoV Urbani / Binding of serum 37 to linear peptides of protein M of SARS-CoV Urbani / Binding of serum 6 to looped/cyclic peptides of protein M of SARS-CoV Urbani / Binding of serum 37 to looped/cyclic peptides of protein M of SARS-CoV Urbani / Binding of serum 6 to linear peptides of protein X3 of SARS-CoV Urbani / Binding of serum 37 to linear peptides of protein X3 of SARS-CoV Urbani / Binding of serum 37 to looped/cyclic peptides of protein X3 of SARS-CoV Urbani / Binding of serum 6 to linear peptides of protein X4 of SARS-CoV Urbani / Binding of serum 37 to linear peptides of protein X4 of SARS-CoV Urbani / Binding of serum 37 to looped/cyclic peptides of protein X4 of SARS-CoV Urbani / Binding of serum 6 to linear peptides of protein X5 of SARS-CoV Urbani / Binding of serum 37 to linear peptides of protein X5 of SARS-CoV Urbani / Binding of serum 37 to looped/cyclic peptides of protein X5 of SARS-CoV Urbani / Binding of serum 6 to linear peptides of protein N of SARS-CoV Urbani / Binding of serum 37 to linear peptides of protein N of SARS-CoV Urbani / Binding of serum 6 to linear peptide (PEPSCAN-ELISA) / Binding of serum 1a to looped/cyclic peptides of protein N of SARS-CoV Urbani / Binding of serum 1b to looped/cyclic peptides of protein N of SARS-CoV Urbani / Binding of serum 2 to looped/cyclic peptides of protein N of SARS-CoV Urbani / Binding of serum 6 to looped/cyclic peptides of protein N of SARS-CoV Urbani / Binding of serum 37 to looped/cyclic peptides of protein N of SARS-CoV Urbani / Binding of serum 62 to looped/cyclic peptides of protein N of SARS-CoV Urbani / Binding of serum London to looped/cyclic peptides of protein N of SARS-CoV Urbani / Binding of serum SARS-green to looped/cyclic peptides of protein N of SARS-CoV Urbani: unit not given here

Sequence	Binding of antibody 03-018 to linear peptides of the N protein of SARS-CoV Urbani [1]	Binding of antibody 03-018 to looped/cyclic peptides of the N protein of SARS-CoV Urbani [1]	Binding of a rabbit serum to linear peptides of protein N of SARS-CoV Urbani (Rabbit serum linear peptides) [3]	Binding of a rabbit serum to looped/cyclic peptides of protein N of SARS-CoV Urbani (Rabbit serum looped peptides) [3]	Binding of serum 1a to looped/cyclic peptides of protein N of SARS-CoV Urbani [4]	Binding of serum 1b to looped/cyclic peptides of protein N of SARS-CoV Urbani [4]	Binding of serum 2 to looped/cyclic peptides of protein N of SARS-CoV Urbani [4]	Binding of serum 6 to looped/cyclic peptides of protein N of SARS-CoV Urbani [4]	Binding of serum 37 to looped/cyclic peptides of protein N of SARS-CoV Urbani [4]	Binding of serum 62 to looped/cyclic peptides of protein N of SARS-CoV Urbani [4]	Binding of serum London to looped/cyclic peptides of protein N of SARS-CoV Urbani [4]	Binding of serum SARS-green to looped/cyclic peptides of protein N of SARS-CoV Urbani [4]	Binding of serum SARS-yellow to looped/cyclic peptides of protein N of SARS-CoV Urbani [4]	Binding of serum 1a to linear peptides of protein N of SARS-CoV Urbani [4]	Binding of serum 1b to linear peptides of protein N of SARS-CoV Urbani [4]	Binding of serum 2 to linear peptides of protein N of SARS-CoV Urbani [4]	Binding of serum 6 to linear peptides of protein N of SARS-CoV Urbani [4]	Binding of serum 37 to linear peptides of protein N of SARS-CoV Urbani [4]	Binding of serum 62 to linear peptides of protein N of SARS-CoV Urbani [4]	Binding of serum London to linear peptides of protein N of SARS-CoV Urbani [4]	other results
PKGFYAEGSRGGSQA	0.1	0.2	0.1	0.1	0.3	0.3	0.3	0.2	0.4	0.5	0.3	0.4	0.2	–	–	–	–	–	–	–	Binding of Control Serum Blood-Bank to Looped peptides [2]: 0.5; Binding of Control serum Blood-bank to linear peptides [2]: 0.8; Binding of Control serum LUMC to linear peptides [2]: 0.7; Binding of Control serum LUMC to looped peptides [2]: 0.5; Binding of serum 1a to linear peptide (PEPSCAN-ELISA) [4]: 0.3; Binding of serum 1b to linear peptide (PEPSCAN-ELISA) [4]: 0.1; Binding of serum 2 to linear peptide (PEPSCAN-ELISA) [4]: 0.2; Binding of serum 6 to linear peptide (PEPSCAN-ELISA) [4]: 0.2; Binding of serum 37 to linear peptide (PEPSCAN-ELISA) [4]: 0.6; Binding of serum 62 to linear peptide (PEPSCAN-ELISA) [4]: 0.6; Binding of serum London to linear peptide (PEPSCAN-ELISA) [4]: 0.5; Binding of serum SARS-green to linear peptide (PEPSCAN-ELISA) [4]: 0.0; Binding of serum SARS-yellow to linear peptide (PEPSCAN-ELISA) [4]: 0.5
PKKDKKKKTDEAQPL	0.1	0.2	0.1	0.0	0.2	0.1	0.2	0.1	0.4	0.3	0.3	0.1	0.2	0.2	0.1	2.5	0.2	0.7	0.7	0.5	Control Serum Blood-Bank Looped peptides [2]: 0.4; Control serum Blood-bank linear peptides [2]: 0.8; Control serum LUMC linear peptides [2]: 0.8; Control serum LUMC looped peptides [2]: 0.3; Binding of serum SARS-green to linear peptides of protein N of SARS-CoV Urbani [4]: 0.1; Binding of serum SARS-yellow to linear peptides of protein N of SARS-CoV Urbani [4]: 0.5
PKQRRPQGLPNNTAS	0.2	0.3	0.2	0.2	0.5	0.5	0.8	0.4	0.8	0.7	0.6	3.1	0.9	0.2	0.1	0.4	0.2	0.9	0.7	0.6	Binding of Control Serum Blood-Bank to Looped peptides [2]: 0.8; Binding of Control serum Blood-bank to linear peptides [2]: 0.8; Binding of Control serum LUMC to linear peptides [2]: 0.7; Binding of Control serum LUMC to looped peptides [2]: 1.0; Binding of serum SARS-green to linear peptides of protein N of SARS-CoV Urbani [4]: 0.6; Binding of serum SARS-yellow to linear peptides of protein N of SARS-CoV Urbani [4]: 0.6
PLPQRQKKQPTVTLL	0.1	0.3	0.1	0.7	–	–	–	–	–	–	–	–	–	0.2	0.1	0.2	0.2	0.5	0.6	1.0	Control Serum Blood-Bank Looped peptides [2]: 1.1; Control serum Blood-bank linear peptides [2]: 0.7; Control serum LUMC linear peptides [2]: 0.5; Control serum LUMC looped peptides [2]: 1.1; Binding of serum SARS-green to linear peptides of protein N of SARS-CoV Urbani [4]: 0.2; Binding of serum SARS-yellow to linear peptides of protein N of SARS-CoV Urbani [4]: 1.0; Recognition of the peptide by sera of SARS-CoV infected individuals, and form (linear, looped/cyclic) in which it is recognized [4]: recognized in looped/cyclic form
PNNNAATVLQLPQGT	0.1	0.3	0.0	0.2	0.5	0.4	0.8	0.3	1.0	0.9	0.7	0.7	0.5	0.2	0.1	0.2	0.1	0.6	0.6	0.5	Binding of Control Serum Blood-Bank to Looped peptides [2]: 0.9; Binding of Control serum Blood-bank to linear peptides [2]: 0.6; Binding of Control serum LUMC to linear peptides [2]: 0.6; Binding of Control serum LUMC to looped peptides [2]: 0.8; Binding of serum SARS-green to linear peptides of protein N of SARS-CoV Urbani [4]: 0.3; Binding of serum SARS-yellow to linear peptides of protein N of SARS-CoV Urbani [4]: 0.7

From patent US20070128217A1 (priority 2003, published 2007)
